Source: ChEMBL document CHEMBL3880386, “Combination comprising the MEK inhibitor N-{3-[3-cyclopropyl-5-(2-fluoro-4-iodo- phenylamino)-6,8-dimethyl-2,4,7-trioxo-3,4,6,7-tetrahydro-2H-pyrido[4,3-d]pyrimidin-1-yl]phenyl}acetamide and the Akt inhibitor N-{(1S)-2-amino-1-[(3-fluorophenyl)methyl]ethyl}-5-chloro-4-(4-chloro-1- …” (2014)

Assays:
[1] = (§1) Growth inhibition of human HT-29 cells assessed combination index at 1:10 molar ratio of compound in presence of N-{3-[3-cyclopropyl-5-(2-fluoro-4-iodo-phenylamino)-6,8-dimethyl- 2,4,7-trioxo-3,4,6,7-tetrahydro-2H-pyrido[4,3-d]pyrimidin-1-yl]phenyl}acetamide incubated for 72 hrs by Cell-titer-Glo reagent based assay; format: functional
[2] = Growth inhibition of human NCI-H1155 cells at 1:10 molar ratio of compound in presence of N-{3-[3-cyclopropyl-5-(2-fluoro-4-iodo-phenylamino)-6,8-dimethyl- 2,4,7-trioxo-3,4,6,7-tetrahydro-2H-pyrido[4,3-d]pyrimidin-1-yl]phenyl}acetamide incubated for 72 hrs by Cell-titer-Glo reagent based assay; format: functional; settings: NCI-H1155, 72 h
[3] = as §1, with “LS1034” for “HT-29”; format: functional, LS-1034
[4] = as §1, with “SW1463” for “HT-29”; format: functional
[5] = Growth inhibition of human COR-L23 cells at 1:10 molar ratio of compound in presence of N-{3-[3-cyclopropyl-5-(2-fluoro-4-iodo-phenylamino)-6,8-dimethyl- 2,4,7-trioxo-3,4,6,7-tetrahydro-2H-pyrido[4,3-d]pyrimidin-1-yl]phenyl}acetamide incubated for 72 hrs by Cell-titer-Glo reagent based assay; format: functional; settings: COR-L23, 72 h
[6] = Growth inhibition of human Calu6 cells at 1:10 molar ratio of compound in presence of N-{3-[3-cyclopropyl-5-(2-fluoro-4-iodo-phenylamino)-6,8-dimethyl- 2,4,7-trioxo-3,4,6,7-tetrahydro-2H-pyrido[4,3-d]pyrimidin-1-yl]phenyl}acetamide incubated for 72 hrs by Cell-titer-Glo reagent based assay; format: functional; settings: Calu-6, 72 h
[7] = Growth inhibition of human A427 cells at 1:10 molar ratio of compound in presence of N-{3-[3-cyclopropyl-5-(2-fluoro-4-iodo-phenylamino)-6,8-dimethyl- 2,4,7-trioxo-3,4,6,7-tetrahydro-2H-pyrido[4,3-d]pyrimidin-1-yl]phenyl}acetamide incubated for 72 hrs by Cell-titer-Glo reagent based assay; format: functional; settings: A-427, 72 h
[8] = as §1, with “NCI-H23” for “HT-29”; format: functional
[9] = (§2) Growth inhibition of human SW900 cells at 1:10 molar ratio of compound in presence of N-{(1S)-2-amino-1-[(3-fluorophenyl)methyl]ethyl}-5-chloro-4-(4-chloro-1-methyl-1H-pyrazol-5-yl)-2-thiophenecar- boxamide incubated for 72 hrs by Cell-titer-Glo reagent based assay; format: functional; settings: SW900, 72 h
[10] = Growth inhibition of human MV522 cells at 1:10 molar ratio of compound in presence of N-{(1S)-2-amino-1-[(3-fluorophenyl)methyl]ethyl}-5-chloro-4-(4-chloro-1-methyl-1H-pyrazol-5-yl)-2-thiophenecar- boxamide incubated for 72 hrs by Cell-titer-Glo reagent based assay; format: functional; settings: MV522, 72 h
[11] = Growth inhibition of human EFM19 cells at 1:10 molar ratio of compound in presence of N-{(1S)-2-amino-1-[(3-fluorophenyl)methyl]ethyl}-5-chloro-4-(4-chloro-1-methyl-1H-pyrazol-5-yl)-2-thiophenecar- boxamide incubated for 72 hrs by Cell-titer-Glo reagent based assay; format: functional; settings: EFM-19, 72 h
[12] = as §2, with “MDA-MB-175-VII” for “SW900”, “cells assessed combination index” for “cells”; format: functional
[13] = Growth inhibition of human HT-29 cells at 1:10 molar ratio of compound in presence of N-{(1S)-2-amino-1-[(3-fluorophenyl)methyl]ethyl}-5-chloro-4-(4-chloro-1-methyl-1H-pyrazol-5-yl)-2-thiophenecar- boxamide incubated for 72 hrs by Cell-titer-Glo reagent based assay; format: functional; settings: HT-29, 72 h
[14] = Growth inhibition of human COLO205 cells at 1:10 molar ratio of compound in presence of N-{(1S)-2-amino-1-[(3-fluorophenyl)methyl]ethyl}-5-chloro-4-(4-chloro-1-methyl-1H-pyrazol-5-yl)-2-thiophenecar- boxamide incubated for 72 hrs by Cell-titer-Glo reagent based assay; format: functional; settings: COLO 205, 72 h

| Compound | CI [1] | IC50 [2] [nM] | CI [3] | CI [4] | IC50 [5] [nM] | IC50 [6] [nM] | IC50 [7] [nM] | CI [8] | IC50 [9] [nM] | IC50 [10] [nM] | IC50 [11] [nM] | CI [12] | IC50 [13] [nM] | IC50 [14] [nM] |
| --- | --- | --- | --- | --- | --- | --- | --- | --- | --- | --- | --- | --- | --- | --- |
| Cn1ncc(Cl)c1-c1cc(C(=O)N[C@H](CN)Cc2cccc(F)c2)sc1Cl [AFURESERTIB] | 0.95 | 101 | 0.84 | 0.94 | 368 | 31 | 103 | 0.76 | – | – | – | – | – | – |
| CC(=O)Nc1cccc(-n2c(=O)n(C3CC3)c(=O)c3c(Nc4ccc(I)cc4F)n(C)c(=O)c(C)c32)c1 [TRAMETINIB] | – | – | – | – | – | – | – | – | 72 | 1 | 30 | 0.39 | 1 | 1 |
